Test results: patent US20190105367A1, “ANTIMICROBIAL 4-OXOQUINOLIZINES” (Emergent Product Development Gaithersburg Inc., priority 2011, published 2019)
≈ marks a conversion by molar mass, not a printed value. Blank lines part the entries; values can stand above or below the molecule they belong to.

Key:
[1] = system: strains of A. baumannii and one strain of Acinetobacter sp.; experiment: MIC with sub-inhibitory concentrations (0.25x MIC) of polymyxin B, panel of Acinetobacter strains (Example 4); assay type: cell-based; conditions: 1st experiment; […] polymyxin B; ATCC 19606, A329, A390 and A473 not taken
A. baumannii ATCC 19606 [2] = experiment: MIC without and with sub-inhibitory polymyxin B (Example 4); assay type: cell-based, Acinetobacter baumannii; conditions: 1st experiment
A. baumannii ATCC 19606 [3] = experiment: Preliminary MBC without and with sub-inhibitory polymyxin B (Example 4); assay type: cell-based, Acinetobacter baumannii; conditions: Acinetobacter baumannii, ATCC19606, read-out: MBC +0.06 μg/ml PB, A. baumannii ATCC 19606, +0.06 μg/ml polymyxin B, 1st experiment
A. baumannii J2 [4] = experiment: MIC without and with sub-inhibitory polymyxin B (Example 4); assay type: cell-based, Acinetobacter baumannii; conditions: 1st experiment
A. baumannii J2 [5] = experiment: Preliminary MBC without and with sub-inhibitory polymyxin B (Example 4); assay type: cell-based, Acinetobacter baumannii; conditions: Acinetobacter baumannii, J2, read-out: MBC +[…] PB, A. baumannii J2; +[…] polymyxin B; preliminary MBC; 1st experiment
[6] = system: Acinetobacter sp. (H064200250); experiment: MIC without and with sub-inhibitory polymyxin B (Example 4); assay type: cell-based; conditions: 1st experiment
[7] = system: Acinetobacter sp. (H064200250); experiment: Preliminary MBC without and with sub-inhibitory polymyxin B (Example 4); assay type: cell-based; conditions: Acinetobacter, read-out: MBC +[…] PB, Acinetobacter spp. H064200250; +[…] polymyxin B; preliminary MBC; 1st experiment
Description: (§1) The plates were incubated for 18-20 hours at 37° C. The MBC was read as the lowest concentration at which colony growth was ca. 90% less than the positive control (i.e. usually where single colonies or no colonies were observed).

A. baumannii A387 [8] = experiment: MIC without and with sub-inhibitory polymyxin B (Example 4); assay type: cell-based, Acinetobacter baumannii; conditions: 1st experiment
A. baumannii A387 [9] = experiment: Preliminary MBC without and with sub-inhibitory polymyxin B (Example 4); assay type: cell-based, Acinetobacter baumannii; conditions: Acinetobacter baumannii, A387, read-out: MBC +0.06 μg/ml PB, A. baumannii A387, +0.06 μg/ml polymyxin B, 1st experiment
A. baumannii NCTC 13301 [10] = experiment: as above; assay type: cell-based, Acinetobacter baumannii; conditions: Acinetobacter baumannii, NCTC13301, read-out: MBC +[…] PB
Description: as §1

A. baumannii A401 [11] = experiment: MIC without and with sub-inhibitory polymyxin B (Example 4); assay type: cell-based, Acinetobacter baumannii; conditions: 1st experiment
A. baumannii A401 [12] = experiment: Preliminary MBC without and with sub-inhibitory polymyxin B (Example 4); assay type: cell-based, Acinetobacter baumannii; conditions: Acinetobacter baumannii, A401, read-out: MBC +0.06 μg/ml PB, A baumannii A 401, +0.06 μg/ml polymyxin B, 1st experiment
A. baumannii A472 [13] = experiment: MIC without and with sub-inhibitory polymyxin B (Example 4); assay type: cell-based, Acinetobacter baumannii; conditions: 1st experiment
A. baumannii A472 [14] = experiment: Preliminary MBC without and with sub-inhibitory polymyxin B (Example 4); assay type: cell-based, Acinetobacter baumannii; conditions: Acinetobacter baumannii, A472, read-out: MBC +[…] PB, A. baumannii A472; +[…] polymyxin B; preliminary MBC; 1st experiment
A. baumannii A489 [15] = experiment: MIC without and with sub-inhibitory polymyxin B (Example 4); assay type: cell-based, Acinetobacter baumannii; conditions: 1st experiment
A. baumannii A489 [16] = experiment: Preliminary MBC without and with sub-inhibitory polymyxin B (Example 4); assay type: cell-based, Acinetobacter baumannii; conditions: Acinetobacter baumannii, A489, read-out: MBC +[…] PB, A. baumannii A489; +[…] polymyxin B; preliminary MBC; 1st experiment
A. baumannii NCTC 13301 [17] = experiment: MIC without and with sub-inhibitory polymyxin B (Example 4); assay type: cell-based, Acinetobacter baumannii
A. baumannii A14 [18] = experiment: as above; assay type: cell-based, Acinetobacter baumannii; conditions: 1st experiment
A. baumannii A14 [19] = experiment: Preliminary MBC without and with sub-inhibitory polymyxin B (Example 4); assay type: cell-based, Acinetobacter baumannii; conditions: A. baumannii A14, preliminary MBC, 1st experiment
[20] = system: S. aureus ATCC 43300 (MRSA, FQ-S); experiment: MIC, selected panel of bacterial strains (Example 5); assay type: cell-based, Staphylococcus aureus; conditions: Staphylococcus aureus, read-out: MICs against Gram positive bacteria S. aureus ATCC 43300 (MRSA, FQ-S)

MIC range with PB (0.25x MIC) Oct. 1, 2008 n = 8 [1]: ≤0.03 to 1 µg/mL
MIC without PB/MIC + PB (A. baumannii ATCC 19606 [2]; A. baumannii ATCC 19606, ratio, PB 0.06 μg/ml): ≥16
MIC (A. baumannii ATCC 19606 [2]; Acinetobacter baumannii, ATCC19606, read-out: MIC +0.06 μg/ml PB, A. baumannii ATCC 19606, +0.06 μg/ml polymyxin B): ≤ 0.03 µg/mL
MIC without PB/MIC + PB (A. baumannii J2 [4]; A. baumannii J2, ratio, PB […]): 64
MIC (A. baumannii J2 [4]; Acinetobacter baumannii, J2, read-out: MIC +[…] PB, A. baumannii J2, +[…] polymyxin B): 0.06 µg/mL (≈ 0.162 µM)
MIC without PB/MIC + PB ([6]; Acinetobacter spp. H064200250, ratio, PB […]): 128
MIC ([6]; Acinetobacter, read-out: MIC +[…] PB, Acinetobacter spp. H064200250, +[…] polymyxin B): 0.06 µg/mL (≈ 0.162 µM)
MIC without PB/MIC + PB (A. baumannii A387 [8]; A. baumannii A387, ratio, PB 0.06 μg/ml): ≥32
MIC (A. baumannii A387 [8]; Acinetobacter baumannii, A387, read-out: MIC +0.06 μg/ml PB, A. baumannii A387, +0.06 μg/ml polymyxin B): ≤ 0.03 µg/mL
MIC without PB/MIC + PB (A. baumannii A401 [11]; A baumannii A 401, ratio, PB 0.06 μg/ml): 8
MIC (A. baumannii A401 [11]; Acinetobacter baumannii, A401, read-out: MIC +0.06 μg/ml PB, A baumannii A 401, +0.06 μg/ml polymyxin B): 0.5 µg/mL
MIC without PB/MIC + PB (A. baumannii A472 [13]; A. baumannii A472, ratio, PB […]): ≥128
MIC (A. baumannii A472 [13]; Acinetobacter baumannii, A472, read-out: MIC +[…] PB, A. baumannii A472, +[…] polymyxin B): ≤ 0.03 µg/mL
MIC without PB/MIC + PB (A. baumannii A489 [15]; A. baumannii A489, ratio, PB […]): ≥256
MIC (A. baumannii A489 [15]; Acinetobacter baumannii, A489, read-out: MIC +[…] PB, A. baumannii A489, +[…] polymyxin B): ≤ 0.03 µg/mL
MIC without PB/MIC + PB (A. baumannii NCTC 13301 [17]; A. baumannii NCTC 13301, ratio, PB […], 1st experiment): ≥512
MIC (A. baumannii NCTC 13301 [17]; Acinetobacter baumannii, NCTC13301, read-out: MIC +[…] PB): ≤ 0.03 µg/mL
MIC +0.06 μg/ml PB (A. baumannii A14 [18]; +0.06 μg/ml polymyxin B): 1 µg/mL
MIC (A. baumannii A14 [18]; Acinetobacter baumannii, 24 h, without polymyxin B, read-out: MIC without PB): 16 µg/mL (≈ 43.2 µM)
MIC without PB/MIC + PB (A. baumannii A14 [18]; ratio, PB 0.06 μg/ml): 16
Structure (SMILES): Cc1c(-c2ccc(N)c(F)c2)c(F)cn2c(=O)c(C(=O)O)cc(C3CC3)c12 [Compound 17, 8-(3-fluoro-4-amino-phenyl)-1-cyclopropyl-7-fluoro-9-methyl-4-oxo-quinolizine-3-carboxylic acid]
MBC (A. baumannii ATCC 19606 [3]): ≤ 0.03 µg/mL
MBC (A. baumannii J2 [5]): 0.06 µg/mL (≈ 0.162 µM)
MBC [7]: 0.06 µg/mL (≈ 0.162 µM)
MBC (A. baumannii A387 [9]): ≤ 0.03 µg/mL
MBC (A. baumannii NCTC 13301 [10]): ≤ 0.03 µg/mL
MBC (A. baumannii A401 [12]): 0.5 µg/mL
MBC (A. baumannii A472 [14]): 0.125 µg/mL (≈ 0.338 µM)
MBC (A. baumannii A489 [16]): ≤ 0.03 µg/mL
MBC +0.06 μg/ml PB (A. baumannii A14 [19]; +0.06 μg/ml polymyxin B): 1 µg/mL
MBC (A. baumannii A14 [19]; Acinetobacter baumannii, without polymyxin B, read-out: MBC without PB): 16 µg/mL (≈ 43.2 µM)

Structure (SMILES): Cc1c(-c2ccc(N)nc2)c(F)cn2c(=O)c(C(=O)[O-])cc(C3CC3)c12.[K+] [Compound 60K salt, potassium 8-(6-aminopyridin-3-yl)-1-cyclopropyl-7-fluoro-9-methyl-4-oxo-4H-quinolizine-3-carboxylate]
MIC [20]: < 0.004 µg/mL

Structure (SMILES): Cc1c(C2=CCNCC2)c(F)cn2c(=O)c(C(=O)[O-])cc(C3CC3)c12.[K+] [Compound 62K salt, potassium 8-(1,2,3,6-tetrahydropyridin-4-yl)-1-cyclopropyl-7-fluoro-9-methyl-4-oxo-4H-quinolizine-3-carboxylate]
MIC [20]: 0.125 µg/mL
